The source made the active and inactive calls. The rule behind the calls is not given here.
Test system: Acanthamoeba polyphaga
Assay: Amoebicidal activity against Trophozoites of Acanthamoeba polyphaga 5SU assessed as log reduction in cell count at 10 mM in phosphate buffered saline at pH 5 after 1 hr by hemocytometer using trypan blue staining
Assay type: functional, organism-based

`O=S(=O)(O)CCNCl` was tested, and the Activity was “Active”.

Source: ChEMBL document CHEMBL1151469, “Cytotoxic activity of N-chlorotaurine on Acanthamoeba spp” (Antimicrob Agents Chemother, 2008)
